Test results as given in US11891634B2, “PDE5A destabilizing domains” (The Board of Trustees of the Leland Stanford Junior …, priority 2017, dated 2024).

Experiments:
[1] = test system: NIH3T3 cells expressing AcGFP-PDE5A fusions; assay: Immunoblot analysis of AcGFP-PDE5A fusions (anti-XFP / anti-HA); type: cell-based, mouse; settings: 10 μM Sildenafil or vehicle alone, 24 hours
Protocol: Identified PDE5A mutants were further validated using immunoblot analysis. NIH3T3 cells expressing AcGFP-PDE5A fusions were incubated with 10 μM Sildenafil or vehicle alone for 24 hours and the stability of PDE5A mutants was evaluated at the protein level. Cell lysates obtained from transduced NIH3T3 cells were immunoblotted using the anti-XFP antibody (1:3000) at 4° C. overnight. Samples were also immunoblotted with anti-GAPDH antibody (1:10000) to ensure uniform protein loading. Samples were then incubated with secondary anti-mouse antibody (1:3000) at room temperature for 1 hour, followed by visualization using appropriate methods. […] The difference in band intensity recapitulates the pattern from the FACS analysis.
A hemagglutinin (HA) sequence (SEQ ID NO. 74; encoded by SEQ ID NO. 75) was cloned in-frame at either the 5′- or 3′-ends of the PDE5A mutant sequence from PDE5AC (#41). The construct further included AcGFP (amino acids 1-239 of WT) at the N terminus (SEQ ID NO. 76, encoded by SEQ ID NO. 77) and an EF linker/EcoRI restriction site (GAATTC). […] The effect of the HA sequence on ligand dependent stabilization was evaluated via immunoblot analysis. […] As show in FIG. 3, HA-tagged fusion protein expression detected with either anti-XFP antibody or anti-HA antibody was nearly identical. […]

[2] = test system: NIH3T3 cells expressing AcGFP-PDE5A variants; assay: Sildenafil dose dependency (FACS, percentage of max MFI); type: cell-based, mouse; settings: Sildenafil 0.003 μM to 30 μM, read-out: half maximal effective concentration or EC50
Protocol: NIH3T3 cells expressing AcGFP-PDE5A variants were incubated with varying concentrations of Sildenafil ranging from 0.003 μM to 30 μM. The stability of PDE5A mutants was measured using FACS and mean fluorescence intensity (MFI) of GFP was calculated. […] Percentage of max MFI (%) was calculated as the ratio of the MFI at a ligand concentration compared to the maximum MFI. Percentage of max MFI was plotted against the concentration of Sildenafil presented in a log scale. Titration curves of PDE5AC (#2) and PDE5AC (#41) are presented in FIG. 4A and FIG. 4B, respectively. […] The half maximal effective concentration or EC50 was approximately 0.5 μM for PDE5AC (#2) and 2 μM for PDE5AC (#41).

AcGFP = assay: Comparison of N-terminal and C-terminal PDE5A derived DD (FACS); type: cell-based, human; settings: 24 hours
Protocol: The ability of PDE5A derived DDs to destabilize a protein of interest may depend on the position whether the DD is appended to the N terminus or the C terminus of the protein of interest. Mutant #2, and mutant #41 were appended either to the N terminus or C terminus of AcGFP and analyzed using the cell-based screening assay described previously to identify destabilizing domains. Cells were split into two treatment groups and incubated with either Sildenafil (10 μM) or vehicle alone for 24 hours. Cells that were mock transduced or transduced with the N terminal fused wild-type PDE5A or PDE5AN (#40) constructs were also included in the analysis. The results are presented in Table 8 where the C terminal PDE5A mutants are denoted as PDE5AC and N terminal PDE5A mutants are denoted as PDE5AN.
The stabilization ratio was calculated as the fold change in GFP intensity of the AcGFP-PDE5A construct in Sildenafil treated sample compared to vehicle alone treated sample.

[3] = test system: NIH3T3 cells expressing AcGFP-PDE5A fusions; assay: FACS analysis of C-terminal PDE5A mutants (AcGFP-PDE5A fusions), Sildenafil vs vehicle; type: cell-based, mouse; settings: for Mean Fluorescence intensity: NIH3T3; for Stabilization ratio: Table 4, Sildenafil 10 μM vs vehicle alone
Protocol: The NIH3T3 cell line was cultured in DMEM supplemented with 10% heat-inactivated donor bovine serum (Invitrogen), 2 mM glutamine, 100 U/ml penicillin and 100 μg/ml streptomycin.
The ΦNX ecotropic packaging cell line was transfected using standard Lipofectamine 2000 protocols. Viral supernatants were harvested 48 hours, post transfection, filtered and concentrated 10-fold using Amicon Ultra centrifugal filter device with a 100kDa cutoff. NIH 3T3 cells were incubated with concentrated retroviral supernatants supplemented with 4 μg/ml polybrene for 4 hours at 37° C. Cells were washed once with PBS and cultured in growth media for 24-36 hours to allow for viral integration.
The transduced NIH3T3 cells were subjected to analysis using fluorescence-activated cell sorting (FACS) to screen the libraries of PDE5A mutants. 24 hours prior to analysis, transduced NIH3T3 cells were plated at 1×10^5 cells per well of a 12-well plate. Cells were removed from the plate using PBS and 2 mM EDTA, washed once with PBS, and resuspended in 200 μL, PBS. FACS analysis was performed on instruments at the Stanford Shared FACS Facility with 10,000 events represented.
To identify destabilizing domains that are responsive to the PDE5A ligand, Sildenafil, a cell-based screening assay was employed in which the fluorescence of green fluorescent protein derived from Aequorea coerulescens (AcGFP) served as an indicator of PDE5A stability. A library based on the PDE5A catalytic domain sequences was generated using error prone PCR and then cloned in-frame in front of AcGFP. A Moloney murine leukemia retroviral expression was used to stably integrate this library of PDE5A-AcGFP fusions into NIH-3T3 fibroblasts, and the transduced cells were subjected to three rounds of sorting using flow cytometry. In the first round, cells were treated with 10 μM of PDE5A ligand, Sildenafil for 16-24 before analysis. Fluorescent cells were collected and further cultured in the absence of ligand for 60 hours.
A library of AcGFP-PDE5A fusions i.e., C-terminal PDE5A mutants was screened using the cell-based screening assay described previously to identify C-terminal destabilizing domains. […] Identified candidates were subjected to further characterization by FACS. Cells were split into two treatment groups and incubated with either Sildenafil (10 μM) or vehicle alone for 24 hours. Cells that were mock transduced or transduced with the wild-type PDE5A construct were also included in the analysis. The stabilization ratio was calculated as the fold change in GFP intensity of the AcGFP-PDE5A construct in Sildenafil treated sample compared to vehicle alone treated sample. The results are presented in Table 2 where the C terminal PDE5A mutants are denoted as PDE5AC.
Residue D764 was identified as a mutational hotspot from sequence analysis. PDE5AC (#41) was engineered with either D764N or D764G mutation via site-directed mutagenesis. PDE5AC (#41) +D764N comprises the amino acid sequence of SEQ ID NO. 53 (encoded by SEQ ID NO. 54) and PDE5AC (#41) +D764G comprises the amino acid sequence of SEQ ID NO. 55 (encoded by SEQ ID NO. 56). AcGFP-PDE5A variants were evaluated for Sildenafil dependent stabilization via FACS as described previously. Results from FACS analysis are presented in Table 4 where the C terminal PDE5A mutants are denoted as PDE5AC. The stabilization ratio was calculated as the fold change in GFP intensity of the AcGFP-PDE5A construct in Sildenafil treated sample compared to vehicle alone treated sample.
Extended versions of human PDE5A that included residues in addition to catalytic domain (residues 535-860 of SEQ ID NO. 1) with Q589R polymorphism (SEQ ID NO. 11) were evaluated for use as C-terminal destabilizing domains. Three extended PDE5A sequences were tested that consisted of residues 535-875 of SEQ ID NO. 1 with Q589R polymorphism (SEQ ID NO. 13); residues 466-875 of SEQ ID NO. 1 with Q589R polymorphism (SEQ ID NO. 15); or residues 420-875 of SEQ ID NO. […]

[4] = Table 2, Sildenafil (10 μM) +, 24 hours
[5] = Table 2, Sildenafil (10 μM) −, vehicle alone, 24 hours
[6] = Table 4 (D764 mutations), Sildenafil (10 μM) +
[7] = Table 4 (D764 mutations), Sildenafil (10 μM) −

## PDE5AC (#2): AcGFP fused to C-terminal DD 535-860 of PDE5A (Q589R, D687A, D764N, S815C), SEQ ID NO. 23
[1]
  Fusion protein expression / ligand dependent stabilization by immunoblot: most drastic difference in the intensity of the bands
[2]
  EC50: ~0.5 µM
AcGFP
  Mean FITC-A DMSO: 1342
  Mean FITC-A Sildenafil (10 μM): 5030
[3]; [4]
  Mean Fluorescence intensity: 6577
[3]; [5]
  Mean Fluorescence intensity: 1023
[3]; [6]
  Mean Fluorescence intensity: 3483
[3]; [7]
  Mean Fluorescence intensity: 671
[3]
  Stabilization ratio: 5.2

## PDE5AC (#41): AcGFP fused to C-terminal DD 535-860 of PDE5A (F561L, Q589R, K604E, D724N, L797F), SEQ ID NO. 27
[1]
  Fusion protein expression / ligand dependent stabilization by immunoblot: most drastic difference in the intensity of the bands
[2]
  EC50: ~2 µM
AcGFP
  Mean FITC-A DMSO: 1443
  Mean FITC-A Sildenafil (10 μM): 4620
[3]; [4]
  Mean Fluorescence intensity: 6115
[3]; [5]
  Mean Fluorescence intensity: 1000
[3]; [6]
  Mean Fluorescence intensity: 4647
[3]; [7]
  Mean Fluorescence intensity: 734
[3]
  Stabilization ratio: 6.3
